Measurements: PubChem BioAssay (NCI)
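Assay format: 96-well plates, 48-hour exposure. Definition used: TGI = concentration required for complete inhibition of growth.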

How the values were obtained:
Assay in all cases: NCI tumour cell line growth inhibition, 48 h
786-0 renal = tested on: 786-0 renal
A549 NSCLC = tested on: A549 NSCLC
ACHN renal = tested on: ACHN renal
BT-549 breast = tested on: BT-549 breast
CAKI-1 renal = tested on: CAKI-1 renal
CCRF-CEM leukemia = tested on: CCRF-CEM leukemia
COLO 205 colon = tested on: COLO 205 colon
DU-145 prostate = tested on: DU-145 prostate
EKVX NSCLC = tested on: EKVX NSCLC
HCC-2998 colon = tested on: HCC-2998 colon
HCT-116 colon = tested on: HCT-116 colon
HCT-15 colon = tested on: HCT-15 colon
HL-60(TB) leukemia = tested on: HL-60(TB) leukemia
HOP-62 NSCLC = tested on: HOP-62 NSCLC
HOP-92 NSCLC = tested on: HOP-92 NSCLC
HS 578T breast = tested on: HS 578T breast
HT29 colon = tested on: HT29 colon
IGROV1 ovarian = tested on: IGROV1 ovarian
K-562 leukemia = tested on: K-562 leukemia
KM12 colon = tested on: KM12 colon
LOX IMVI melanoma = tested on: LOX IMVI melanoma
M14 melanoma = tested on: M14 melanoma
MALME-3M melanoma = tested on: MALME-3M melanoma
MCF7 breast = tested on: MCF7 breast
MDA-MB-231 breast = tested on: MDA-MB-231 breast
MDA-MB-435 = tested on: MDA-MB-435
MDA-N = tested on: MDA-N
MOLT-4 leukemia = tested on: MOLT-4 leukemia
NCI-H226 lung = tested on: NCI-H226 lung
NCI-H23 lung = tested on: NCI-H23 lung
NCI-H460 lung = tested on: NCI-H460 lung
NCI-H522 lung = tested on: NCI-H522 lung
NCI/ADR-RES ovarian = tested on: NCI/ADR-RES ovarian
OVCAR-3 ovarian = tested on: OVCAR-3 ovarian
OVCAR-4 ovarian = tested on: OVCAR-4 ovarian
OVCAR-5 ovarian = tested on: OVCAR-5 ovarian
OVCAR-8 ovarian = tested on: OVCAR-8 ovarian
PC-3 prostate = tested on: PC-3 prostate
RPMI-8226 leukemia = tested on: RPMI-8226 leukemia
SF-268 CNS = tested on: SF-268 CNS
SF-295 CNS = tested on: SF-295 CNS
SF-539 CNS = tested on: SF-539 CNS
SK-MEL-2 melanoma = tested on: SK-MEL-2 melanoma
SK-MEL-28 melanoma = tested on: SK-MEL-28 melanoma
SK-MEL-5 melanoma = tested on: SK-MEL-5 melanoma
SK-OV-3 ovarian = tested on: SK-OV-3 ovarian
SN12C renal = tested on: SN12C renal
SNB-19 CNS = tested on: SNB-19 CNS
SR leukemia = tested on: SR leukemia
SW-620 colon = tested on: SW-620 colon
T-47D breast = tested on: T-47D breast
TK-10 renal = tested on: TK-10 renal
U251 CNS = tested on: U251 CNS
UACC-257 melanoma = tested on: UACC-257 melanoma
UACC-62 melanoma = tested on: UACC-62 melanoma
UO-31 renal = tested on: UO-31 renal
A498 renal = tested on: A498 renal
SNB-75 CNS = tested on: SNB-75 CNS

Clc1ccc(Cc2nc3cc(Cl)ccc3o2)cc1
TGI (786-0 renal): > 100 µM
TGI (A549 NSCLC): > 100 µM
TGI (ACHN renal): > 100 µM
TGI (BT-549 breast): > 100 µM
TGI (CAKI-1 renal): > 100 µM
TGI (CCRF-CEM leukemia): 92.3 µM
TGI (COLO 205 colon): 87.4 µM
TGI (DU-145 prostate): > 100 µM
TGI (EKVX NSCLC): 80.9 µM
TGI (HCC-2998 colon): 53.2 µM
TGI (HCT-116 colon): > 100 µM
TGI (HCT-15 colon): > 100 µM
TGI (HL-60(TB) leukemia): > 100 µM
TGI (HOP-62 NSCLC): > 100 µM
TGI (HOP-92 NSCLC): > 100 µM
TGI (HS 578T breast): > 100 µM
TGI (HT29 colon): > 100 µM
TGI (IGROV1 ovarian): > 100 µM
TGI (K-562 leukemia): > 100 µM
TGI (KM12 colon): > 100 µM
TGI (LOX IMVI melanoma): > 100 µM
TGI (M14 melanoma): > 100 µM
TGI (MALME-3M melanoma): > 100 µM
TGI (MCF7 breast): > 100 µM
TGI (MDA-MB-231 breast): > 100 µM
TGI (MDA-MB-435): 95.6 µM
TGI (MDA-N): > 100 µM
TGI (MOLT-4 leukemia): > 100 µM
TGI (NCI-H226 lung): > 100 µM
TGI (NCI-H23 lung): > 100 µM
TGI (NCI-H460 lung): > 100 µM
TGI (NCI-H522 lung): 97 µM
TGI (NCI/ADR-RES ovarian): > 100 µM
TGI (OVCAR-3 ovarian): 70.9 µM
TGI (OVCAR-4 ovarian): > 100 µM
TGI (OVCAR-5 ovarian): > 100 µM
TGI (OVCAR-8 ovarian): > 100 µM
TGI (PC-3 prostate): > 100 µM
TGI (RPMI-8226 leukemia): > 100 µM
TGI (SF-268 CNS): > 100 µM
TGI (SF-295 CNS): 71.8 µM
TGI (SF-539 CNS): > 100 µM
TGI (SK-MEL-2 melanoma): 35.4 µM
TGI (SK-MEL-28 melanoma): > 100 µM
TGI (SK-MEL-5 melanoma): 33.1 µM
TGI (SK-OV-3 ovarian): 68.7 µM
TGI (SN12C renal): > 100 µM
TGI (SNB-19 CNS): > 100 µM
TGI (SR leukemia): > 100 µM
TGI (SW-620 colon): > 100 µM
TGI (T-47D breast): 97.9 µM
TGI (TK-10 renal): > 100 µM
TGI (U251 CNS): 91.2 µM
TGI (UACC-257 melanoma): 92.2 µM
TGI (UACC-62 melanoma): > 100 µM
TGI (UO-31 renal): > 100 µM

CCOP(=O)(OCC)/C(C#N)=C/c1nccn1C
TGI (786-0 renal): > 100 µM
TGI (A498 renal): > 100 µM
TGI (A549 NSCLC): > 100 µM
TGI (ACHN renal): > 100 µM
TGI (BT-549 breast): > 100 µM
TGI (CCRF-CEM leukemia): > 100 µM
TGI (COLO 205 colon): > 100 µM
TGI (DU-145 prostate): > 100 µM
TGI (EKVX NSCLC): > 100 µM
TGI (HCC-2998 colon): > 100 µM
TGI (HCT-116 colon): > 100 µM
TGI (HCT-15 colon): > 100 µM
TGI (HL-60(TB) leukemia): > 100 µM
TGI (HOP-62 NSCLC): > 100 µM
TGI (HOP-92 NSCLC): > 100 µM
TGI (HS 578T breast): > 100 µM
TGI (HT29 colon): > 100 µM
TGI (K-562 leukemia): > 100 µM
TGI (KM12 colon): > 100 µM
TGI (LOX IMVI melanoma): > 100 µM
TGI (M14 melanoma): > 100 µM
TGI (MCF7 breast): > 100 µM
TGI (MDA-MB-231 breast): > 100 µM
TGI (MDA-MB-435): > 100 µM
TGI (MDA-N): > 100 µM
TGI (MOLT-4 leukemia): > 100 µM
TGI (NCI-H226 lung): > 100 µM
TGI (NCI-H23 lung): > 100 µM
TGI (NCI-H460 lung): > 100 µM
TGI (NCI-H522 lung): > 100 µM
TGI (NCI/ADR-RES ovarian): > 100 µM
TGI (OVCAR-3 ovarian): > 100 µM
TGI (OVCAR-5 ovarian): > 100 µM
TGI (OVCAR-8 ovarian): > 100 µM
TGI (PC-3 prostate): > 100 µM
TGI (RPMI-8226 leukemia): > 100 µM
TGI (SF-268 CNS): > 100 µM
TGI (SF-295 CNS): > 100 µM
TGI (SF-539 CNS): > 100 µM
TGI (SK-MEL-2 melanoma): > 100 µM
TGI (SK-MEL-28 melanoma): > 100 µM
TGI (SN12C renal): > 100 µM
TGI (SNB-19 CNS): > 100 µM
TGI (SNB-75 CNS): > 100 µM
TGI (SR leukemia): > 100 µM
TGI (SW-620 colon): > 100 µM
TGI (T-47D breast): > 100 µM
TGI (TK-10 renal): > 100 µM
TGI (U251 CNS): > 100 µM
TGI (UACC-257 melanoma): > 100 µM
TGI (UO-31 renal): > 100 µM

CC(CO)(CO)N1C(=O)C2C3c4ccccc4C(c4ccccc43)C2C1=O (stereo not given)
TGI (786-0 renal): > 100 µM
TGI (A498 renal): > 100 µM
TGI (A549 NSCLC): > 100 µM
TGI (ACHN renal): > 100 µM
TGI (BT-549 breast): > 100 µM
TGI (CAKI-1 renal): > 100 µM
TGI (CCRF-CEM leukemia): > 100 µM
TGI (COLO 205 colon): > 100 µM
TGI (DU-145 prostate): > 100 µM
TGI (HCC-2998 colon): > 100 µM
TGI (HCT-116 colon): > 100 µM
TGI (HCT-15 colon): > 100 µM
TGI (HL-60(TB) leukemia): > 100 µM
TGI (HOP-62 NSCLC): > 100 µM
TGI (HS 578T breast): > 100 µM
TGI (HT29 colon): > 100 µM
TGI (IGROV1 ovarian): > 100 µM
TGI (K-562 leukemia): > 100 µM
TGI (KM12 colon): > 100 µM
TGI (M14 melanoma): > 100 µM
TGI (MALME-3M melanoma): > 100 µM
TGI (MCF7 breast): > 100 µM
TGI (MDA-MB-231 breast): > 100 µM
TGI (MDA-MB-435): > 100 µM
TGI (MDA-N): > 100 µM
TGI (MOLT-4 leukemia): > 100 µM
TGI (NCI-H226 lung): > 100 µM
TGI (NCI-H23 lung): > 100 µM
TGI (NCI-H460 lung): > 100 µM
TGI (NCI-H522 lung): > 100 µM
TGI (NCI/ADR-RES ovarian): > 100 µM
TGI (OVCAR-3 ovarian): > 100 µM
TGI (OVCAR-5 ovarian): > 100 µM
TGI (OVCAR-8 ovarian): > 100 µM
TGI (PC-3 prostate): > 100 µM
TGI (SF-268 CNS): > 100 µM
TGI (SF-295 CNS): > 100 µM
TGI (SF-539 CNS): > 100 µM
TGI (SK-MEL-2 melanoma): > 100 µM
TGI (SK-MEL-28 melanoma): > 100 µM
TGI (SK-MEL-5 melanoma): > 100 µM
TGI (SK-OV-3 ovarian): > 100 µM
TGI (SN12C renal): > 100 µM
TGI (SNB-19 CNS): > 100 µM
TGI (SNB-75 CNS): > 100 µM
TGI (SR leukemia): > 100 µM
TGI (SW-620 colon): > 100 µM
TGI (T-47D breast): > 100 µM
TGI (TK-10 renal): > 100 µM
TGI (U251 CNS): > 100 µM
TGI (UACC-257 melanoma): > 100 µM
TGI (UACC-62 melanoma): > 100 µM
TGI (UO-31 renal): > 100 µM
